Entries after “also recorded” stand apart in the source; their conditions may differ.
How the values were obtained:
[1] = tested on: Murine macrophage cells (J774); assay: Cytotoxicity assay J774, resazurin reduction; type: cell-based; conditions: cytotoxicity, 72 h
Procedure, shortened: (§1)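 J774 and HepG2 cells were seeded at 0.5x10^5 cell/well and exposed to serially diluted compounds for 72 h at 37°C, 5% CO2. Viability was read by fluorescence resazurin reduction (λEx 550 nm, λEm 590 nm).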

[2] = Cytotoxicity assay J774, resazurin reduction; type: cell-based, murine; conditions: mouse, J774 macrophage cells, cytotoxicity, 72 h; for viability at 72 h, 2.5 µM: read-out: Residual viability, J774 (2.5 µM); for viability at 72 h, 25 µM: read-out: Residual viability, J774 (25 µM)
Procedure, shortened: as §1

[3] = tested on: L. major axenic amastigotes; assay: L. major axenic amastigote viability, resazurin reduction; conditions: Leishmania major; for viability at 2.5 µM / viability at 25 µM: 72 h; for viability at 2.5 µM: read-out: Residual viability, L.major amastigote (2.5 µM); for viability at 25 µM: read-out: Residual viability, L.major amastigote (25 µM); for EC50: read-out: EC50 L. major axenic amastigote
Procedure, shortened: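 Axenic L. major LV561 amastigotes were grown in Grace medium with 20% FCS, pH 5.4, at 33°C and seeded at 0.5x10^5 cells/well with compounds for 72 h. Resazurin was then added for 6 h and fluorescence read at ex 550/em 590 nm; hits were retested at 2.5 μM.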

L. major promastigotes = assay: L. major promastigote viability, resazurin reduction; type: cell-based, Leishmania major; conditions: Leishmania major; for EC50: dose response, triplicate
From the text: The infectivity of the parasites was boosted by passaging in Balb/c mice and culturing the infected lymph nodes after six weeks. L. infantum (MHOM / BR / 76 / M4192) parasite was passaged in the same media formulation with 0.5% urine.

L. major = assay: Cutaneous leishmaniasis mouse model: lymph node parasite burden (qPCR) and footpad swelling; type: in vivo, Balb/c mice; conditions: for Parasite load in popliteal lymph nodes (qPCR kDNA) vs DMSO control: PHT-39 13.75 mg/kg i.p. daily or s.c. every other day; for Parasite load in popliteal lymph nodes (qPCR kDNA) vs DMSO control / Footpad swelling vs DMSO control: AmB 8 mg/kg i.p.; for Footpad swelling vs DMSO control: day 21 post challenge
Procedure: Female Balb/c mice, aged 6–8 weeks, were purchased from the breeding stock in Czech Republic (Animalab, Czech Republic). Animals were kept under standard conditions according to European ethical guidelines for experimental animals.
L. major metacyclic promastigotes were prepared from a five day stationary phase culture through Ficoll gradient centrifugation according to previous studies with minor changes: Briefly, a 20% and 10% Ficoll gradient were prepared in PBS and M199 media, respectively and placed in a 14 ml falcon tube. Then, 1x10^9 L. major promastigotes were loaded on top of gradient and centrifuged. Metacyclic parasites were collected between two layers. Four groups of mice (n = 6) were challenged by subcutaneous injection of 2x10^6 stationary phase metacyclic promastigotes (50 μl in PBS) into the left hind footpad. Two weeks after infectious challenge, animals were treated by i.p or intralesional (s.c) PHT-39 injection (13.75 mg/kg body weight), daily or every other day, respectively, for ten days. AmB (8 mg/kg body weight) was applied as positive control drug (i.p injection for ten days) and 5% DMSO in distilled water was applied as negative control (s.c injection for ten days) (Table 1).
Every four days after the challenge, body weight was monitored and footpad swelling changes were measured (Footpad swelling = (height + width)/2) with a metric caliper (Kroeplin, IP65, D-series, external measuring gauge).
After the 10 days course of treatment all animals were sacrificed, and popliteal lymph nodes of each infected footpad were collected for parasite load determination. Genomic DNA was extracted from the lymph nodes (DNeasy Blood and Tissue kit, Qiagen). Equal concentration of samples (125 ng) was applied to quantify leishmania kDNA with primers RV1(forward: 5’-[…]-3’) and RV2 (reverse: 5’-CCACCTG […]-3’). qPCR data was normalized using the murine house-keeping gene GAPDH amplified with primers (forward:5’[…]3’; reverse: 5’[…]3’) in parallel using Maxima SYBR green qPCR master (Thermo). qPCR was performed using Biorad CFX96 device with 95°C/ 10 min (initial denaturation), then 95°C/15s (denaturation), 60°C /30s (annealing) and 72°C/ 40s (extension) over 40 cycles. For ΔCT calculation of samples, every CT were subtracted from the same on GAPDH. Then, ΔΔCT of each group was normalized according to negative control group (DMSO).
The most significant requirement of an anti-leishmanial drug is its ability to reduce the parasite burden in the infected host. […] Briefly, four groups of 6–8 weeks Balb/c mice were challenged with 2 x 10^6 L. major promastigotes subcutaneously injected into the hind footpad. Treatment started after two weeks when a wound started to form. Two groups were treated with PHT-39 compound at doses of 13.75 mg/kg either via i.p route, daily, or s.c route, every other day for 10 days. One group received a daily dosage of AmB as a control, and another infected non-treated group was included in the study. After 10 days, popliteal lymph nodes were collected to assess parasite burden and immune response stimulation was studied in spleen cell culture supernatants.

T. cruzi trypomastigotes = assay: T. cruzi viability, resazurin reduction; type: cell-based, Trypanosoma cruzi; conditions: 72 h; for viability at 2.5 µM / viability at 25 µM: Trypanosoma cruzi; for viability at 2.5 µM: read-out: Residual viability, T.cruzi (2.5 µM), 2.5 µM, 72 h; for viability at 25 µM: read-out: Residual viability, T.cruzi (25 µM), 25 µM, 72 h
Procedure, shortened: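 Y-strain trypomastigotes kept in supplemented liver infusion tryptose broth with 10% FCS, pH 7.2, at 28°C. Viability by fluorescence resazurin reduction; single-point screen at 2.5 μM, then 18-concentration dose response. Amphotericin B as control drug.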

[4] = PHT-39 13.75 mg/kg i.p. or s.c.

Row | Compound | EC50 ([1]; Mus musculus, J774, 72 h) | viability at 72 h, 2.5 µM [2] | viability at 72 h, 25 µM [2] | viability at 2.5 µM [3] | viability at 25 µM [3] | EC50 [3] | viability at 25 µM (L. major promastigotes; 72 h, read-out: Residual viability, L.major promastigote (25 µM)) | EC50 (L. major promastigotes) | Parasite load in popliteal lymph nodes (qPCR kDNA) vs DMSO control (L. major; 10 days) | Elimination of L. major infection in cutaneous leishmaniasis model (L. major; PHT-39 13.75 mg/kg i.p. or s.c., 10 days, 13.75 mg/kg) | Parasite burden in lymph nodes (L. major; PHT-39 13.75 mg/kg s.c. every other day) | Footpad swelling vs DMSO control (L. major; [4]) | viability at 2.5 µM (T. cruzi trypomastigotes) | viability at 25 µM (T. cruzi trypomastigotes) | EC50 [1] | Residual viability, T.cruzi (25 µM) (T. cruzi trypomastigotes; 25 µM)
1 | CC[C@@H](C)[C@H](c1nc2ccccc2n1Cc1cn(-c2ccc(C(F)(F)F)cc2)nn1)N1C(=O)c2ccccc2C1=O [PHT-39] | > 16 µM | 98.3 ± 2.92% | 68 ± 9.09% | 62.1 ± 3.43% | 2.6% | 2.6 ± 1.8 µM | 16.6 ± 1.6% | 5.9 ± 1.8 µM | did not show a significant difference; also recorded: not significantly changed | unable to eradicate L. major infection; also recorded: failed to eliminate the Leishmania infection | lower but insignificant parasite burden | Neither of the test groups showed significant difference with the DMSO control; also recorded: did not show any significant changes | 57.6 ± 1.04% | 31.5 ± 1.51% | – | –
2 | C[C@@H]1[C@H](O)[C@@H](C)/C=C/C=C/C=C/C=C/C=C/C=C/C=C/[C@H](O[C@@H]2O[C@H](C)[C@@H](O)[C@H](N)[C@@H]2O)C[C@@H]2O[C@](O)(C[C@@H](O)C[C@@H](O)[C@H](O)CC[C@@H](O)C[C@@H](O)CC(=O)O[C@H]1C)C[C@H](O)[C@H]2C(=O)O [AmB, amphotericin B, reference compound] | > 10 µM | 101 ± 11.8% | 57.73 ± 0.52% | 2.71 ± 1.02% | 0.33 ± 2.12% | 0.3 µM | – | 0.2 µM | reduce the parasite load significantly; also recorded: reduction of parasite load in the AmB group was significant | – | – | reduced significantly; also recorded: effectively reduced the swelling | 8.07 ± 0.38% | 7.4% | > 16 µM | 7.37±1.09%
